Measured values: US12559454B2, “Benzenesulfonamide derivatives and uses thereof” (2692372 Ontario, Inc., priority 2019, dated 2026)

Key:
MV4-11 cells = assay: CellTiter-Blue cell viability, MV-4-11; assay type: cell-based; conditions: Homo sapiens, 72 hrs exposure
Protocol: (§1) Anti-cancer efficacy of exemplary compounds of this application was assessed in vitro in different cancer cell lines. Cell viability was examined following treatment at various concentration of inhibitor (0.097656-50 μM) using a cell Titer-Blue cell viability assay. 1×10^4 cells (NHF, MV4-11, K562 and MOLM-13 cells)/well were plated in 96-well assay plates in culture medium. All cells were grown in DMEM, IMDM and RPMI-1640 supplemented with 10% FBS. After 24 hrs, test compounds and vehicle controls were added to appropriate wells so the final volume was 100 μl in each well. The cells were cultured for the desired test exposure period (72 hrs) at 37° C. and 5% CO2. The assay plates were removed from 37° C. incubator and 20 μl/well of CellTiter-Blue® Reagent was added. The plates were incubated using standard cell culture conditions for 1-4 hours and the plates were shaken for 10 seconds and record fluorescence at 560/590 nm.

K562 cells = assay: CellTiter-Blue cell viability, K562; assay type: cell-based; conditions: Homo sapiens, 72 hrs exposure
Protocol: as §1

tubulin = assay: Tubulin polymerization assay; assay type: biochemical; conditions: for % Inhibition: Vmax normalized to tubulin only control; for % D.O.P.: degree of polymerization relative to tubulin control
Protocol: A96-well half-area clear flat-bottom microplate (Corning® #3697) was pre-heated in a plate reader (Cytation 3, BioTek) at 37° C. for 15 minutes prior to the start of each assay. Tubulin polymerization buffer (80 mM PIPES pH 6.9, 2 mM MgCl2, 0.5 mM EGTA, 15% glycerol, 1 mM GTP) was prepared from stock solutions and placed on ice. Inhibitors were prepared to M concentrations in buffer (80 mM PIPES pH 6.9, 2 mM MgCl2, 0.5 mM EGTA, 5% DMSO) from DMSO stock solutions. After the assay plate was pre-warmed, 10 μL of inhibitor or buffer control was added to selected wells. Every assay contained a tubulin only negative control for normalization of data, and a batabulin positive control. The assay plate was incubated at 37° C. for 3 minutes. During this time, a frozen aliquot of tubulin (10 mg/mL) in buffer (80 mM PIPES pH 6.9, 2 mM MgCl2, 0.5 mM EGTA) was defrosted by placing in a room temperature water bath. Once thawed, 200 μL of tubulin was mixed with 420 μL ice cold tubulin polymerization buffer (3 mg/mL tubulin in 80 mM PIPES, pH 6.9, 2 mM MgCl2, 0.5 mM EGTA, 1 mM GTP, 10.2% glycerol). To a 96-well plate on ice, aliquots of 100 μL tubulin was added to each well. From this plate, 90 μL of tubulin was immediately pipetted into all sample wells of the warmed assay plate using a multi-channel pipette. The assay plate was immediately put in the reader at 37° C. and shook for 5 s with orbital shaking at medium speed. The reader recorded the absorbance at 340 nm every 15 s for 30 min.
The resulting absorbance curves were normalized by subtracting each data point by the absorbance at time 0.
The largest change in absorbance over the assay time course was also recorded and related to the tubulin control as the % degree of polymerization (% D.O.P.).

MOLM-13 cells = assay: CellTiter-Blue cell viability, MOLM-13; assay type: cell-based; conditions: Homo sapiens, 72 hrs exposure
Protocol: as §1

| IC50 (MV4-11 cells) | IC50 (K562 cells) | IC50 (MOLM-13 cells) | Structure (SMILES) | % Inhibition (tubulin) | % D.O.P. (tubulin) |
| --- | --- | --- | --- | --- | --- |
| > 10 µM | > 10 µM | – | O=S(=O)(Nc1cccc(Cl)c1)c1c(F)c(F)c(F)c(F)c1OC1CC1 [Compound I-99, N-(3-chlorophenyl)-2-cyclopropoxy-3,4,5,6-tetrafluorobenzenesulfonamide] | – | – |
| 0.1 to 1 µM | – | – | O=S(=O)(Nc1ccc(F)cc1)c1c(F)c(F)c(F)c(F)c1OC1CC1 [Compound I-96, 2-cyclopropoxy-3,4,5,6-tetrafluoro-N-(4-fluorophenyl)benzenesulfonamide] | A (<10%) | A (>85%) |
| – | – | ≤ 0.1 µM | CCOc1c(F)c(F)c(F)c(F)c1S(=O)(=O)Nc1ccc(OC)c(F)c1 [Compound I-85, 2-ethoxy-3,4,5,6-tetrafluoro-N-(3-fluoro-4-methoxyphenyl)benzenesulfonamide] | A (<10%) | A (>85%) |
| > 10 µM | > 10 µM | – | COc1ccc(NS(=O)(=O)c2c(O)c(F)c(F)c(F)c2F)cc1F [Compound I-63, 2,3,4,5-tetrafluoro-N-(3-fluoro-4-methoxyphenyl)-6-hydroxybenzenesulfonamide] | A (<10%) | A (>85%) |
| > 10 µM | > 10 µM | – | CN(C)S(=O)(=O)c1c(O)c(F)c(F)c(F)c1F [Compound I-3, 2,3,4,5-tetrafluoro-6-hydroxy-N,N-dimethylbenzenesulfonamide] | – | – |
| 0.1 to 1 µM | > 10 µM | – | COC(=O)c1ccc(NS(=O)(=O)c2c(F)c(F)c(F)c(F)c2OC2CC2)cc1 [Compound I-102, methyl 4-((2-cyclopropoxy-3,4,5,6-tetrafluorophenyl)sulfonamido)benzoate] | – | – |
| > 10 µM | – | – | N#Cc1ccc(NS(=O)(=O)c2c(F)c(F)c(F)c(F)c2OC2CC2)cc1 [Compound I-101, N-(4-cyanophenyl)-2-cyclopropoxy-3,4,5,6-tetrafluorobenzenesulfonamide] | – | – |
| – | – | – | COc1ccc(CNc2c(F)c(F)c(F)c(F)c2S(=O)(=O)Nc2ccc(OC)c(F)c2)cc1 [Compound I-87, 2,3,4,5-tetrafluoro-N-(3-fluoro-4-methoxyphenyl)-6-((4-methoxybenzyl)amino)benzenesulfonamide] | A (<10%) | A (>85%) |
| – | – | – | COc1ccc(NS(=O)(=O)c2c(N)c(F)c(F)c(F)c2F)cc1F [Compound I-88, 2-amino-3,4,5,6-tetrafluoro-N-(3-fluoro-4-methoxyphenyl)benzenesulfonamide] | A (<10%) | A (>85%) |
| > 10 µM | – | – | O=S(=O)(Nc1ccc(F)cc1F)c1c(F)c(F)c(F)c(F)c1OC1CC1 [Compound I-97, 2-cyclopropoxy-N-(2,4-difluorophenyl)-3,4,5,6-tetrafluorobenzenesulfonamide] | – | – |
| 1 to 10 µM | > 10 µM | – | CN(C)S(=O)(=O)c1c(F)c(F)c(F)c(F)c1OCCF [Compound I-125, 2,3,4,5-tetrafluoro-6-(2-fluoroethoxy)-N,N-dimethylbenzenesulfonamide] | – | – |
| 1 to 10 µM | > 10 µM | – | CN(C)S(=O)(=O)c1c(F)c(F)c(F)c(F)c1OCC(F)(F)F [Compound I-10, 2,3,4,5-tetrafluoro-N,N-dimethyl-6-(2,2,2-trifluoroethoxy)benzenesulfonamide] | – | – |
| 0.1 to 1 µM | – | – | COc1ccc(NS(=O)(=O)c2c(F)c(F)c(F)c(F)c2Oc2ccc(F)cc2)cc1F [Compound I-80, 2,3,4,5-tetrafluoro-N-(3-fluoro-4-methoxyphenyl)-6-(4-fluorophenoxy)benzenesulfonamide] | – | – |
| – | – | – | COc1ccc(CN(Cc2ccc(OC)cc2)S(=O)(=O)c2c(O)c(F)c(F)c(F)c2F)cc1 [Compound I-82, 2,3,4,5-tetrafluoro-6-hydroxy-N,N-bis(4-methoxybenzyl)benzenesulfonamide] | B (10-20%) | A (>85%) |
| 1 to 10 µM | – | – | COc1c(F)c(F)c(F)c(F)c1S(=O)(=O)N(C)C [Compound I-4, 2,3,4,5-tetrafluoro-6-methoxy-N,N-dimethylbenzenesulfonamide] | – | – |
| > 10 µM | – | – | O=S(=O)(Nc1cc(F)c(F)cc1F)c1c(F)c(F)c(F)c(F)c1OC1CC1 [Compound I-98, 2-cyclopropoxy-3,4,5,6-tetrafluoro-N-(2,4,5-trifluorophenyl)benzenesulfonamide] | – | – |
| 1 to 10 µM | – | – | O=S(=O)(Nc1ccccc1)c1c(F)c(F)c(F)c(F)c1OC1CC1 [Compound I-95, 2-cyclopropoxy-3,4,5,6-tetrafluoro-N-phenylbenzenesulfonamide] | – | – |
| 0.1 to 1 µM | – | – | CNc1c(F)c(F)c(F)c(F)c1S(=O)(=O)Nc1ccc(OC)c(F)c1 [Compound I-86, 2,3,4,5-tetrafluoro-N-(3-fluoro-4-methoxyphenyl)-6-(methylamino)benzenesulfonamide] | A (<10%) | A (>85%) |
| ≤ 0.1 µM | – | ≤ 0.1 µM | COc1ccc(NS(=O)(=O)c2c(F)c(F)c(F)c(F)c2OC(F)(F)F)cc1F [Compound I-84, 2,3,4,5-tetrafluoro-N-(3-fluoro-4-methoxyphenyl)-6-(trifluoromethoxy)benzenesulfonamide] | C (>20%) | B (< 85%) |
| ≤ 0.1 µM | – | 0.1 to 1 µM | COc1ccc(NS(=O)(=O)c2c(F)c(F)c(F)c(F)c2OC(F)F)cc1F [Compound I-65, 2-(difluoromethoxy)-3,4,5,6-tetrafluoro-N-(3-fluoro-4-methoxyphenyl)benzenesulfonamide] | C (>20%) | B (< 85%) |
| > 10 µM | – | – | COc1ccc(NS(=O)(=O)c2c(F)c(F)c(F)c(F)c2OC2CCCC2)cc1F [Compound I-70, 2-(cyclopentyloxy)-3,4,5,6-tetrafluoro-N-(3-fluoro-4-methoxyphenyl)benzenesulfonamide] | A (<10%) | A (>85%) |
| > 10 µM | – | – | O=S(=O)(Nc1cccc2ccccc12)c1c(F)c(F)c(F)c(F)c1OC1CC1 [Compound I-104, 2-cyclopropoxy-3,4,5,6-tetrafluoro-N-(naphthalen-1-yl)benzenesulfonamide] | – | – |
| > 10 µM | > 10 µM | – | N#Cc1cccc(NS(=O)(=O)c2c(F)c(F)c(F)c(F)c2OC2CC2)c1 [Compound I-100, N-(3-cyanophenyl)-2-cyclopropoxy-3,4,5,6-tetrafluorobenzenesulfonamide] | – | – |
| > 10 µM | – | – | O=S(=O)(Nc1ccc(Oc2ccccc2)cc1)c1c(F)c(F)c(F)c(F)c1OC1CC1 [Compound I-103, 2-cyclopropoxy-3,4,5,6-tetrafluoro-N-(4-phenoxyphenyl)benzenesulfonamide] | – | – |
| 1 to 10 µM | 1 to 10 µM | – | C#CCN(c1ccc(OC)c(F)c1)S(=O)(=O)c1c(F)c(F)c(F)c(F)c1OC1CC1 [Compound I-124, 2-cyclopropoxy-3,4,5,6-tetrafluoro-N-(3-fluoro-4-methoxyphenyl)-N-(prop-2-yn-1-yl)benzenesulfonamide] | – | – |

| Structure (SMILES) | IC50 (MV4-11 cells) | IC50 (K562 cells) | IC50 (MOLM-13 cells) | % Inhibition (tubulin) | % D.O.P. (tubulin) |
| --- | --- | --- | --- | --- | --- |
| COc1ccc(NS(=O)(=O)c2c(F)c(F)c(F)c(F)c2OC2CCC2)cc1F [Compound I-69, 2-cyclobutoxy-3,4,5,6-tetrafluoro-N-(3-fluoro-4-methoxyphenyl)benzenesulfonamide] | 0.1 to 1 µM | – | – | A (<10%) | A (>85%) |
